Assay results taken from patent US20080044474A1, “Dispersions of nanoureas comprising biologically active compounds” (Bayer MaterialScience AG, priority 2006, published 2008).

Legend:
Format in all cases: cell-based
[1] = tested on: Staphylococcus epidermidis (ATC 14990); assay: Agar plate inhibition halo test according to Example 5, overnight culture
Method: Cells of Staphylococcus epidermidis 498 and Bacillus subtilis 168 are plated out on agar plates such that, after incubation overnight at 37° C., they have formed a visible cell lawn on the agar. […] A hole was in each case punched in the centre of the plates. […] After incubation overnight, the agar was examined for diffusing antibiotic active compounds in that the missing cell lawn around the punched-out hole can be seen (“inhibition halos”). These inhibition halos were compared with an agar plate without further additives and an agar plate with an active compound-free nanourea dispersion. A test according to Example 5 was carried out in an overnight culture of Staphylococcus epidermidis (ATC 14990). The underlying active compound-loaded dispersions F to K were in turn prepared analogously to Example 2. As comparisons L to O, aqueous solutions having various concentrations of ciprofloxacin (Cipro) were additionally tested.

Bacillus subtilis 168 = assay: Agar plate inhibition halo test of active compound-loaded nanourea dispersions; settings: 100 μl dialysed active compound-loaded nanourea dispersion of Example 2 (about 3% active compound on solids), incubation overnight, Müller-Hinton agar
Method: (§1) Cells of Staphylococcus epidermidis 498 and Bacillus subtilis 168 are plated out on agar plates such that, after incubation overnight at 37° C., they have formed a visible cell lawn on the agar. The agar contained a complex nutrient-rich medium (Müller-Hinton medium, OD600=0.1 set; 200 μl plated out per plate, dried at room temperature for one hour). A hole was in each case punched in the centre of the plates.

[2] = tested on: Staphylococcus epidermidis 498; assay: as above; settings: 100 μl dialysed active compound-loaded nanourea dispersion of Example 2 (about 3% active compound on solids), incubation overnight, Müller-Hinton agar
Method: as §1

[3] = active compound-loaded nanourea dispersion prepared analogously to Example 2

## CC(=O)Oc1ccccc1C(=O)O [Acetylsalicylic acid]
[1]; [3]
  Inhibition halo: 13 mm

## O=C(O)c1cn(C2CC2)c2cc(N3CCNCC3)c(F)cc2c1=O [Cipro, Ciprofloxacin]
[1]; aqueous solution, 0.001 mM (comparison O)
  Inhibition halo: 11 mm
[1]; aqueous solution, 0.01 mM (comparison N)
  Inhibition halo: 26 mm
[1]; aqueous solution, 0.1 mM (comparison M)
  Inhibition halo: 36 mm
[1]; aqueous solution, 1 mM (comparison L)
  Inhibition halo: 43 mm

## C=O [Formaldehyde]
[1]; [3]
  Inhibition halo: 21 mm

## COCN(COC)c1nc(N(COC)COC)nc(N(COC)COC)n1 [Hexamethoxymethylmelamine]
[1]; [3]
  Inhibition halo: 13 mm

## O=C(O)c1ccccc1O [Salicylic acid]
[1]; [3]
  Inhibition halo: 38 mm

## O=[N+]([O-])[O-].[Ag+] [Silver nitrate]
Bacillus subtilis 168
  Inhibition halo (diameter minus the diameter of the punched-out hole): 300 μm
[2]
  Inhibition halo (diameter minus the diameter of the punched-out hole): 400 μm

## Potassium iodide-iodine complex
[1]; [3]
  Inhibition halo: 14 mm
